Reference: patent US8048918B2, “Treatment of hyperproliferative diseases” (Vampex Limited, priority 2000, dated 2011)
Entries after “also recorded” stand apart in the source; their conditions may differ. Where no end group is shown, it is not given here.

Legend:
[1] = test system: hyperproliferative psoriatic keratinocytes; experiment: proliferation assay (Coulter cell counter) on hyperproliferative psoriatic keratinocytes; type: cell-based, human
Text: Biopsy samples are obtained from psoriatic patients. Skin from patients with chronic plaque psoriasis are obtained with informed consent. Ethical approval has been obtained previously from The South Sheffield Regional Ethics Committee. Biopsies are all be taken from the lower back in psoriasis patients aged 40 to 60.
Remove subcutaneous tissue and some of the dermis with scissors, dissect skin into 1×2 cm pieces with a scalpel. Rinse the tissue 2-5 times in PBSA. Float skin samples on 0.6% Trypsin in PBSA (pH 7.4) ON at 4° C. (or alternatively for 20-30 min at 37° C.)
The separation of the epidermis is carefully monitored. When the first detachment of the epidermis is visible at the cut edges of the skin sample place the pieces (dermis-side down) in 100 mm Petri dishes. Irrigate with 5 ml of complete culture medium (incl. serum). Peel off the epidermis with forceps and collect it in a 50 ml centrifuge tube containing 20 ml of complete culture medium (KGM). Separate the keratinocytes from the epidermal cells by gently pipetting and sieving through a nylon gauze of 100 μm mesh. Wash the isolated epidermal cells twice in KGM by centrifugation at 100 g for 10 min, and count the total number of cells.
Cells are seeded at 37° C. in KGM medium at a density of 2500 cells/cm^2 in a 25 cm^2 cell culture flask. The medium is replaced every 48 hours and cells are passaged when confluent.
Cell Seeding and Analysis: Purchased secondary cultures or primary cultures (from donor skin) are seeded at 3500 cells/cm^2 in K-SFM 25 cm^2 tissue culture flasks. The medium is changed (5 ml per flask) the day after seeding and every other day thereafter. At 70-80% confluence the cells are subcultured by seeding 3500 cells per well in 24 well cell culture plates, each well containing 500 μl of K-SFM. One well plate is seeded for each treatment. After allowing one day for settling the cells are switched to experimental medium (500 μl per well). Stock solutions of additions are as before. Experimental treatments are as follows:
The medium is replaced every other day. Cells are harvested by trypsinisation. 500 μl Trypsin/EDTA is added to each well to be harvested and then aspirated off. The well plates are incubated for 5-6 min at 37° C. 500 μl PBS is added to the wells and the cells are resuspended. The cell suspension is added to 20 ml Isoton solution in a Coulter counter “Accuvette” and the cells are counted. On each harvest, 3 wells of cells are counted for each treatment and 3 counts were made for each well.
Cell number is calculated as follows: Coulter Counter removes 500 μl of 20 ml sample ( 1/40). Multiply cell count by 40 to obtain cell number in cup, this equals the total number of cells in one well (approximately, as ˜10% taken out for viability test). […]

[2] = test system: retinoic acid synthesis; experiment: RA synthesis in normal human epidermal keratinocytes; type: cell-based; settings: Carbenoxolone 6 μM, Disulfiram 15 μM or Citral 10 μM
Experimental: Protocols used are as described in as in Båvik et al., Experimental Cell research 1995:216, p. 358-362. Briefly, subcultures are grown to confluence in KGM. On day of confluence change to keratinocyte differentiation media (1.2 mM Ca^2+, KDM) with 2 μM holo-RBP+/−inhibitors ([…]; […]; 10 μM Citral; 0.2 mM 4-Methylpyrazole; 15 μM Disulfiram; 10 μM Citral; 2 mM 3-Mercaptopropionic acid; or drug vehicle alone). Cells are grown for 4 days, and cells are media are harvested.
The concentration of RA in cells and media is analysed directly by HPLC. Essentially as in “Characterisation of retinol metabolism in cultured human epidermal keratinocytes”, Randolph R. K. and Simon M., J. Biol. Chem. 268:9198-9205, 1993. The concentration of RA in cells is also analysed indirectly by Northern blot analysis of CRABPII mRNA expression in the keratinocytes, essentially as described in Elder et al. Retinoid Induction of CRABPII nRNA in Human Dermal Fibroblasts: Use as a Retinoid Bioassay, J. Investigative Dermatology 106:517-521, 1996.
The above two experiments are repeated, but with the use of normal human epithelial keratinocytes instead of psoriatic human epidermal keratinocytes.

[3] = test system: human dermal fibroblast cells; experiment: proliferation assay of human dermal fibroblast cells; type: cell-based; settings: P142 1 mg/ml, peptides 6 μM; 24 hours and 4 days after treatment; FIG. 9
Experimental: Fibroblast cell culture is performed essentially as described for culture of hyperproliferative psoriatic keratinocytes (Example 3), except that following irrigation with complete culture medium, the dermal portion is incubated with 1 mg/ml of collagenase (Sigma) in 20 ml DMEM in a 50 ml centrifuge tube for 16 hours at 37° C. Then 20 ml DMEM containing 5% foetal calf serum and 1% antibiotic/antimycotic solution (Gibco) is added and the cells seeded at 37° C. in DMEM medium+additions at a density of 2500 cells/cm^2 in a 25 cm^2 cell culture flask. Medium is replaced every 48 hours and cells passaged when confluent.
Fibroblast cell culture and experiments are performed essentially as described for culture of hyperproliferative psoriatic keratinocytes (above), except that following irrigation with complete culture medium, the dermal portion is processed further. Reference is made to fibroblast culture protocols set out above.
Proliferation of cells is assayed by direct cell counting essentially as for determination of proliferation in keratinocyte cell cultures. RDH, ADH, RalDH inhibitors are found to reduce proliferation.

Molecule: CC1(C)[C@@H](OC(=O)CCC(=O)O)CC[C@]2(C)[C@H]3C(=O)C=C4[C@@H]5C[C@@](C)(C(=O)O)CC[C@]5(C)CC[C@@]4(C)[C@]3(C)CC[C@@H]12 [Carbenoxolone]
- effect on retinol/retinoic acid-induced keratinocyte proliferation (cell numbers) ([1]; RA synthesis inhibitors (Disulfiram 15 μM, Citral 10 μM, Carbenoxolone 12 μM), 1.2 mM Ca2+, 2 μM ROL, FIG. 10): particularly marked effect
- retinoic acid synthesis [2]: inhibited

Molecule: GRVRLLNNWDVCA
- effect on RBP-increased proliferation ([1]; peptides 6 μM, Ca2+ 1.2 mM, RBP 0.6 μM): reversed; also recorded: reduces proliferation
- fibroblast proliferation (cell numbers) [3]: greater reduction in proliferation

Molecule: CC(C)=CCCC(C)=CC=O [Citral, 3,7-dimethyl-2,6-octadienal]
- retinoic acid synthesis [2]: inhibited
